Measurements as given in patent US20240082255A1 (Board of Regents, The University of Texas System, priority 2017, published 2024).
Entries after “also recorded” stand apart in the source; their conditions may differ.

Assays:
[1] = system: IL-12; conditions: Mukherjee et al., 2014; cited from earlier work
[2] = system: MDA-MB-231 cells; experiment: alamar Blue cell viability assay; format: cell-based; conditions: MDA-MB-231, imipramine 5-100 μM, 96 hours
Description: (§1) The data shown are mean±SEM. *, P<0.05; **, P<0.01; ***, P<0.001; ****, P<0.0001 versus control group, t-test.
(§2) Cell viability was assessed using alamar Blue cell viability assay.

[3] = system: MDA-MB-468 cells; experiment: alamar Blue cell viability assay; format: cell-based; conditions: MDA-MB-468, imipramine 5-100 μM, 96 hours
Description: as §1, §2

[4] = system: MDA-MB-231 cells; experiment: transwell invasion assay; format: cell-based; conditions: MDA-MB-231, 20 μM for 48 hrs
[5] = system: MDA-MB-231 cells implanted into the mammary fat pad; conditions: 16 escalated to 20 or 32 escalated to 40 mg/kg body weight, ip daily for thirty days
Description: MDA-MB-231 cells were implanted into the mammary fat pad of athymic nude mice. […] After the 30th day, the mice were euthanized, and the tumors were isolated and processed for molecular and immunohistologic studies. Tumor volume was calculated by using the formula 0.5236L1 (L2)^2, where L1 is long axis and L2 is the short axis of the tumor.

[6] = system: IL-10; conditions: Mukherjee et al., 2014; cited from earlier work
[7] = system: MDA-MB-231 cells; experiment: RNA seq gene expression profiling; format: cell-based; conditions: 96 hours
Description: RNA samples were further processed for gene expression profiling using Illumina HiSeq 2000 following manufacturer's standard protocol (Illumina, San Diego, CA). Differential expression analysis was performed by using DEseq, and significant genes with at least 1.5-fold change with p<0.05 were chosen for analysis. Using all significant and differentially expressed genes from the RNA-seq data, Ingenuity Pathway Analysis software (IPA) was used to interpret the biological pathways. Total protein extracted from cell lines were subjected to western blot analysis.

[8] = system: MDA-MB-231 cells; experiment: transwell migration assay; format: cell-based; conditions: MDA-MB-231, 20 μM for 48 hrs
[9] = system: MDA-MB-231-GFP-luc cells implanted into the mammary fat pad; experiment: orthotopic xenograft study, imipramine and olaparib; format: in vivo, athymic nude mice; conditions: weeks 4 and 5; imipramine 40 mg/kg or olaparib 50 mg/kg body weight
Description: To evaluate whether imipramine can sensitize the response to olaparib treatment, an orthotopic xenograft study was performed. […] Mice were treated for 4 weeks starting week 1 after tumor implantation. Tumor volumes were measured twice a week.

| SMILES | effect on levels of IL-12 [1] | viability of breast cancer cells compared to vehicle-treated cells [2] | viability of breast cancer cells compared to vehicle-treated cells [3] | invasion of breast cancer cells compared with vehicle control [4] | tumor growth (mean tumor volume) compared to vehicle control [5] | tumor size compared to vehicle control [5] | tumor weight compared to vehicle control [5] | effect on IL-10 [6] | expression of cell cycle and DNA repair genes FOXM1, CyclinD1, PLK1, SKP2, XRCC3 and RAD51 [7] | migration of breast cancer cells compared with vehicle control [8] | difference in tumor growth, control vs single agent [9] |
| --- | --- | --- | --- | --- | --- | --- | --- | --- | --- | --- | --- |
| CN(C)CCCN1c2ccccc2CCc2ccccc21 [imipramine] | elevate | significantly reduced viability | significantly reduced viability | reduction | significantly reduced | significantly reduced | reduced tumor weight in a dose dependent manner; also recorded: significantly reduced | inhibit | reduced expression | reduction | significant difference |
| O=C(c1cc(Cc2n[nH]c(=O)c3ccccc23)ccc1F)N1CCN(C(=O)C2CC2)CC1 [olaparib] | – | – | – | – | – | – | – | – | – | – | significant difference |
